The source of these data is patent US8202513B2, “Aryl potassium channel blockers and uses thereof” (Bionomics Limited, priority 2007, dated 2012).

Kv1.3 channel, sequence (P22001 whole entry): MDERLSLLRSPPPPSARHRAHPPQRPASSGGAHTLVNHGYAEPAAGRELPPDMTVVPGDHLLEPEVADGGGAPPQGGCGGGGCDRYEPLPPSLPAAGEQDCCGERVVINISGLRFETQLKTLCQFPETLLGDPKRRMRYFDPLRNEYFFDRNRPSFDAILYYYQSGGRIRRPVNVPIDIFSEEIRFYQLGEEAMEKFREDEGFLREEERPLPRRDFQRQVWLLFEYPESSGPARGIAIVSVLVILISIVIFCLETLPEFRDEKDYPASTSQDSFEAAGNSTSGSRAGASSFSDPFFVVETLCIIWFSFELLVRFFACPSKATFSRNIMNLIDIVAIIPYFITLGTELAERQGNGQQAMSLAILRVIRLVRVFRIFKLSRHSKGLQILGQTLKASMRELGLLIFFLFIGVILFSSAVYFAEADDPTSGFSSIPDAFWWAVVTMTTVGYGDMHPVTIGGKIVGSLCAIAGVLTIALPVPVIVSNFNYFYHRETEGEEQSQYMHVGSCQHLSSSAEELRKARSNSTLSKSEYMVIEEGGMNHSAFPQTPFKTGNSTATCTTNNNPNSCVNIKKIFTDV
hKv1.5, sequence (P22460 whole entry): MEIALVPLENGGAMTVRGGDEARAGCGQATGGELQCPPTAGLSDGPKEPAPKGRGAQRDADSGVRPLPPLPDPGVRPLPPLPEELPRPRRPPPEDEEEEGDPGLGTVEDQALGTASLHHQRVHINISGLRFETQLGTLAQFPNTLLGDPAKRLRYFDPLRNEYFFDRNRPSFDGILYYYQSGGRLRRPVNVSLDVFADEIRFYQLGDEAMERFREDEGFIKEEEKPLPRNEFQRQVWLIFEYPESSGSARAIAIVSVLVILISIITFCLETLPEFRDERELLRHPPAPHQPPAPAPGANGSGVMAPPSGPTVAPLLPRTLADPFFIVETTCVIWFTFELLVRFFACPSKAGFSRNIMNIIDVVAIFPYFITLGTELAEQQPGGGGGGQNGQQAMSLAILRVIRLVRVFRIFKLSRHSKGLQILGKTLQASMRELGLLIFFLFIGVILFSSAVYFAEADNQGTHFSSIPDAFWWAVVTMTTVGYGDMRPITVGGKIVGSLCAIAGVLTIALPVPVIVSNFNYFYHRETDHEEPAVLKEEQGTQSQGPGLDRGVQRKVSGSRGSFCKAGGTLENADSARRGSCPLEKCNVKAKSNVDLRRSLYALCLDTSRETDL

The target of the first experiment is T1, human Kv1.3 ion channel (Homo sapiens, UniProt P22001).
T1 construct: Human Jurkat cells (which endogenously express hKv1.3) or Chinese Hamster Ovary (CHO) cells stably transfected with hKv1.3 were used; endogenous in cells; host or cells: Human Jurkat cells (endogenous) or CHO cells stably transfected with hKv1.3
T1 sequence (P22001 whole entry): as the sequence (P22001 whole entry) above
Description: Inhibition of Kv1.3 currents, planar patch clamp. The note with it: Human Jurkat cells or CHO cells stably transfected with hKv1.3; averaged dose response data from 3 or more cells. The experiment is classed as cell-based. The protocol:
Potency of compounds to inhibit the human Kv1.3 ion channel was determined as follows:
EC50 values for inhibition of Kv1.3 currents were determined by the method according to Schmitz et al (2005) Molecular Pharmacology 68, 1254-1270 with the following differences: • 1. Human Jurkat cells (which endogenously express hKv1.3) or Chinese Hamster Ovary (CHO) cells stably transfected with hKv1.3 were used in place of transfected rat L929 cells. • 2. All electrophysiology was performed using planar patch clamp (Port-A-Patch, Nanion Technologies Gmbh, Munich) in contrast to conventional patch clamp. • 3. EC50 values shown were determined from averaged dose response data obtained from 3 or more cells.
For the compound `COc1c(Cl)c(C)c(C(C)=O)c(OCCc2ccccn2)c1OCCC(C)c1ccc(F)cc1` (stereo not drawn) [Example 7d, 1-[3-Chloro-5-[3-(4-fluoro-phenyl)-butoxy]-4-methoxy-2-methyl-6-(2-pyridin-2-yl-ethoxy)-phenyl]-ethanone], the concentration giving a half-maximal response (EC50) is below 50 nM.

In the case of `COc1c(Cl)c(C)c(C(C)=O)c(OCCN2CCOCC2)c1OCCC(C)c1ccc(F)cc1` (stereo not drawn) [Example 8b, 1-[3-Chloro-5-[3-(4-fluoro-phenyl)-butoxy]-4-methoxy-2-methyl-6-(2-morpholin-4-yl-ethoxy)-phenyl]-ethanone], the EC50 is below 50 nM. Take `COc1c(Cl)c(C)c(C(C)=O)c(OCCN2CC(O)C2)c1OCCCc1ccccc1` [Example 38, 1-[3-Chloro-6-[2-(3-hydroxy-azetidin-1-yl)-ethoxy]-4-methoxy-2-methyl-5-(3-phenyl-propoxy)-phenyl]-ethanone]: the half-maximal effective concentration (EC50) was above 300 nM. On to `COc1c(Cl)c(C)c(C(C)=O)c(OCCN2CC(=O)C2)c1OCCCc1ccccc1` [Example 39, 1-[3-Chloro-6-[2-(3-oxo-azetidin-1-yl)-ethoxy]-4-methoxy-2-methyl-5-(3-phenyl-propoxy)-phenyl]-ethanone], for which the EC50 was above 300 nM. As to `COc1c(Cl)c(C)c(C(C)=O)c(OCCN(C)C)c1OCCC(C)c1ccc(F)cc1` (stereo not drawn) [Example 40, 1-{3-Chloro-6-(2-dimethylamino-ethoxy)-5-[3-(4-fluoro-phenyl)-butoxy]-4-methoxy-2-methyl-phenyl}-ethanone], the EC50 lay within 50 to 150 nM. Still for that read-out and setting: as for `COc1c(Cl)c(C)c(C(C)=O)c(OCCn2ccnc2)c1OCCC(C)c1ccc(F)cc1` (stereo not drawn) [Example 41, 1-[3-Chloro-5-[3-(4-fluoro-phenyl)-butoxy]-6-(2-imidazol-1-yl-ethoxy)-4-methoxy-2-methyl-phenyl]-ethanone], the figure is below 50 nM; as for `COc1c(Cl)c(C)c(C(C)=O)c(OCCN2CCOC[C@@H]2C)c1OCCC(C)c1ccc(F)cc1` (stereo partly drawn) [Example 42, 1-{3-Chloro-5-[3-(4-fluoro-phenyl)-butoxy]-4-methoxy-2-methyl-6-[2-((S)-3-methyl-morpholin-4-yl)-ethoxy]-phenyl}-ethanone], 50 to 150 nM; as for `COc1cc(O)c(C(C)=O)c(OCCCCOc2ccccc2)c1` [reference compound], 150 to 300 nM. Compound `CCCc1c(NCC)ccc(C(C)=O)c1OCCCc1ccccc1` [reference compound] returned an EC50 above 300 nM. With `C=CCc1c(NC(C)=O)ccc(C(C)=O)c1OCCCc1ccccc1` [reference compound], the EC50 was above 300 nM. `COc1cc(OCCCCOc2ccccc2)c(C(C)=O)c(OCCN2CCOCC2)c1` [reference compound]: the EC50 was above 300 nM. On the same count and under the same terms, for `CC(=O)c1c(OCCCCOc2ccccc2)cccc1OCCN1CCOCC1` [reference compound] the value was above 300 nM; for `CC(=O)c1c(O)cccc1OCCCCOc1ccccc1` [reference compound], above 300 nM; for `CCCC(=O)c1ccc(NC(C)=O)cc1OCCCc1ccccc1` [reference compound], above 300 nM. On the same count and under the same terms, for `CC(=O)Nc1ccc(C(C)=O)c(OCCCc2ccccc2)c1` [reference compound] the value was above 300 nM.

With `CC(=O)c1ccc(N)cc1OCCCc1ccccc1` [reference compound], the EC50 is above 300 nM. `COc1ccc(C(C)=O)c(NCCCc2ccccc2)c1` [reference compound] yielded a concentration giving a half-maximal response (EC50) above 300 nM.

For `COc1ccc(C(C)=O)c(NC(=O)CCc2ccccc2)c1` [reference compound], the EC50 was above 300 nM.

The target of another experiment is T2, hKv1.1 (Homo sapiens, UniProt Q09470).
T2 construct: expressed in transfected cells; host or cells: CHO cells, stably transfected
T2 sequence (Q09470 whole entry): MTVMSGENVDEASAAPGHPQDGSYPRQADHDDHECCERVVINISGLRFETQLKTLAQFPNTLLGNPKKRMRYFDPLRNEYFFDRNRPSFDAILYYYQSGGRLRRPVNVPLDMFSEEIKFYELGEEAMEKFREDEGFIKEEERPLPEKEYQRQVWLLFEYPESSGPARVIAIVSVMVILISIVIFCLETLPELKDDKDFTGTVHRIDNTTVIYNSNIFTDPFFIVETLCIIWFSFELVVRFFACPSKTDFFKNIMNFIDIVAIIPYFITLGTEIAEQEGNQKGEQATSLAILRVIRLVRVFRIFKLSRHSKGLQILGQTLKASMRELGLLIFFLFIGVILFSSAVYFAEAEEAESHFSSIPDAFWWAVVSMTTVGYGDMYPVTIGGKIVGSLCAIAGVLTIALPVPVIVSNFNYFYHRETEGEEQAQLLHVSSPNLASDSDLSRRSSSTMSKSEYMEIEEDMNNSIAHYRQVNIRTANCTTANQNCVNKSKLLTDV
Description: Inhibition of Kv1.1 currents, planar patch clamp (selectivity). The experiment is classed as cell-based. The note with it: CHO cells stably transfected with hKv1.1. The protocol: (§1) EC50 values for inhibition of Kv1.1 and Kv1.5 currents were determined by the method according to Schmitz et al (2005) Molecular Pharmacology 68, 1254-1270 with the following differences: • 1. Chinese Hamster Ovary (CHO) cells stably transfected with hKv1.1 and hKv1.5 were used in place of transfected rat L929 cells. • 2. All electrophysiology was performed using planar patch clamp (Port-A-Patch, Nanion Technologies Gmbh, Munich) in contrast to conventional patch clamp. • 3. EC50 values shown were determined from averaged dose response data obtained from 3 or more cells.
A general note: The patch-clamp technique gives a direct electrical read-out from membranes.
Consider `COc1c(Cl)c(C)c(C(C)=O)c(OCCc2ccccn2)c1OCCC(C)c1ccc(F)cc1` (stereo not drawn) [Example 7d, 1-[3-Chloro-5-[3-(4-fluoro-phenyl)-butoxy]-4-methoxy-2-methyl-6-(2-pyridin-2-yl-ethoxy)-phenyl]-ethanone], for which the “Selectivity for Kv1.3 over Kv1.1” value was found to be 45 fold. For the compound `COc1c(Cl)c(C)c(C(C)=O)c(OCCN2CCOCC2)c1OCCC(C)c1ccc(F)cc1` (stereo not drawn) [Example 8b, 1-[3-Chloro-5-[3-(4-fluoro-phenyl)-butoxy]-4-methoxy-2-methyl-6-(2-morpholin-4-yl-ethoxy)-phenyl]-ethanone], the “Selectivity for Kv1.3 over Kv1.1” value was determined as 33 fold.

A further experiment addresses hKv1.5 (Homo sapiens, UniProt P22460). Nature of the experiment: Inhibition of Kv1.5 currents, planar patch clamp (selectivity). The format is cell-based. The note with it: CHO cells stably transfected with hKv1.5. The method, then: as §1
On to `COc1c(Cl)c(C)c(C(C)=O)c(OCCc2ccccn2)c1OCCC(C)c1ccc(F)cc1` (stereo not drawn) [Example 7d, 1-[3-Chloro-5-[3-(4-fluoro-phenyl)-butoxy]-4-methoxy-2-methyl-6-(2-pyridin-2-yl-ethoxy)-phenyl]-ethanone], for which the “selectivity for Kv1.3 over Kv1.5” value was determined as 37 fold.

With `COc1c(Cl)c(C)c(C(C)=O)c(OCCN2CCOCC2)c1OCCC(C)c1ccc(F)cc1` (stereo not drawn) [Example 8b, 1-[3-Chloro-5-[3-(4-fluoro-phenyl)-butoxy]-4-methoxy-2-methyl-6-(2-morpholin-4-yl-ethoxy)-phenyl]-ethanone], the “selectivity for Kv1.3 over Kv1.5” value amounted to 35 fold.

Another experiment has as its target Kv1.3 channel (Homo sapiens, UniProt P22001).
Assay: not given
The note with it: cited from earlier work.
For the compound `COc1c2occc2cc2ccc(=O)oc12` [8-Methoxypsoralen (8-MOP), 8-Methoxypsoralen], the “blocking activity on the Kv1.3 channel” value was “weak blocking activity”. As for `COc1c(C(C)=O)c(O)c(OC)c2occc12` [Khellinone], the “blocking activity on the Kv1.3 channel” value is on record as “weak blocking activity”.

For orientation: EC50 means the concentration giving half of the maximal effect.
